Legend:
[1] = target: T1, Kynurenine 3-monooxygenase (Rattus norvegicus, UniProt O88867); assay: Inhibition of rat brain KYN 3-OHase.
[2] = target: T1, Kynurenine 3-monooxygenase; assay: Inhibition of rat liver KYN 3-OHase.
[3] = target: Kynurenine 3-monooxygenase (Rattus norvegicus) (UniProt O88867); assay: Inhibition of rat liver KYN 3-OHase at 100 uM concentration
FMO [4] = target: T2, FMO (Mus musculus, UniProt Q64133+Q8BW75); assay: Compound was evaluated for inhibition of FMO. at 100 uM; type: protein assay
T2 sequence (Q8BW75 whole entry): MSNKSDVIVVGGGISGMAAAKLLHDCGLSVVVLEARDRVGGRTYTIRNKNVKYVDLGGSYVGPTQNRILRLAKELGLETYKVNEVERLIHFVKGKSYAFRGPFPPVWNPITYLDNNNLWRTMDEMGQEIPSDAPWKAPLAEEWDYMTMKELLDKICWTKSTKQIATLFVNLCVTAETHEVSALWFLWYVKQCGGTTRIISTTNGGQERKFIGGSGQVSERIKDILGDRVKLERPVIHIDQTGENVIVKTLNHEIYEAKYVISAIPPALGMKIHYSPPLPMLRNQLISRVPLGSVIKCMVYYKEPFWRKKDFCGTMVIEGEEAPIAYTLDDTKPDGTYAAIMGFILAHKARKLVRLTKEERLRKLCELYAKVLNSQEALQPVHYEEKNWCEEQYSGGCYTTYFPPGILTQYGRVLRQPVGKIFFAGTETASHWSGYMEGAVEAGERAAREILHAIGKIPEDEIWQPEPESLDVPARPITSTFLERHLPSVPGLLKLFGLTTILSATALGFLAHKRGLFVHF
T2 sequence (Q64133 whole entry): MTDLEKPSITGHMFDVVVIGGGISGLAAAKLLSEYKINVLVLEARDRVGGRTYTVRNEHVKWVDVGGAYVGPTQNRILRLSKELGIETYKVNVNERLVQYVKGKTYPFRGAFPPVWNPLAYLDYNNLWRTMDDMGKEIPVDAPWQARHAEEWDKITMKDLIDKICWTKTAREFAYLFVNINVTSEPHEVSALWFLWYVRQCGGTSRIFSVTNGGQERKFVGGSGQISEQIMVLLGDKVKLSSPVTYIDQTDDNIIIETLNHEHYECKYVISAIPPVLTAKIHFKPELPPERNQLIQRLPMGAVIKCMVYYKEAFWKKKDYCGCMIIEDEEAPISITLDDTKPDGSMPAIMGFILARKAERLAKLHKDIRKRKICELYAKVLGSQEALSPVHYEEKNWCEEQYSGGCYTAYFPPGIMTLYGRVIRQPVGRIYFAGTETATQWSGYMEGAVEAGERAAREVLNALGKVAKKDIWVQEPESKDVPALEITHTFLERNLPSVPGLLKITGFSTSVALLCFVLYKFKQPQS

[5] = target: T3, Kynureninase (Rattus norvegicus) (UniProt P70712); assay: Compound was evaluated for inhibition of rat liver KYN ase at 100 uM
T3 sequence (whole entry): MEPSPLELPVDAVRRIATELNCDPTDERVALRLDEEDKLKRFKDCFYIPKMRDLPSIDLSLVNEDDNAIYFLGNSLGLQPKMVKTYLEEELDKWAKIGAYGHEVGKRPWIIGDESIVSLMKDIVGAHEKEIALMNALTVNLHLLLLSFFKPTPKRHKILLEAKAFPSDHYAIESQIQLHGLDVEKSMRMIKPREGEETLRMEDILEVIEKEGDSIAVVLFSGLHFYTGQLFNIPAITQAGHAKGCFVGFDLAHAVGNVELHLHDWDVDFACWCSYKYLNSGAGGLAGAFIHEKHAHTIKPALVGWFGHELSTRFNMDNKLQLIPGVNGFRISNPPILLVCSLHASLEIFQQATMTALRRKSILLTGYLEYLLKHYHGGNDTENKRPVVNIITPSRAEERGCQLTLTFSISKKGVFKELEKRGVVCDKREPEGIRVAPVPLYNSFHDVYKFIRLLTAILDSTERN

[6] = target: Kynurenine/alpha-aminoadipate aminotransferase, mitochondrial (Rattus norvegicus) (UniProt Q64602); assay: Compound was evaluated for inhibition of rat liver KAT at 100 uM
[7] = target: T1, Kynurenine 3-monooxygenase; assay: Compound was evaluated for the inhibition of rat liver KYN 3-OHase
Pseudomonas fluorescens [8] = assay: Compound was evaluated for inhibition of PHBH. at 100 uM
FMO [9] = target: T2, FMO; assay: Compound was evaluated for inhibition of FMO at 100 uM concentration; type: protein assay
[10] = target: T3, Kynureninase (Rattus norvegicus); assay: Compound was evaluated for inhibition of rat liver KYN ase at 100 uM concentration
[11] = target: Kynurenine/alpha-aminoadipate aminotransferase, mitochondrial (Rattus norvegicus) (UniProt Q64602); assay: Compound was evaluated for inhibition of rat liver KAT at 100 uM concentration
Pseudomonas fluorescens [12] = assay: Compound was evaluated for inhibition of PHBH at 100 uM concentration
[13] = target: Kynurenine/alpha-aminoadipate aminotransferase, mitochondrial (Rattus norvegicus) (UniProt Q64602); assay: Compound was evaluated for inhibition of rat liver KAT at 100 uM concentration.

Kynurenine 3-monooxygenase (Rattus norvegicus), sequence (O88867 whole entry, looked up): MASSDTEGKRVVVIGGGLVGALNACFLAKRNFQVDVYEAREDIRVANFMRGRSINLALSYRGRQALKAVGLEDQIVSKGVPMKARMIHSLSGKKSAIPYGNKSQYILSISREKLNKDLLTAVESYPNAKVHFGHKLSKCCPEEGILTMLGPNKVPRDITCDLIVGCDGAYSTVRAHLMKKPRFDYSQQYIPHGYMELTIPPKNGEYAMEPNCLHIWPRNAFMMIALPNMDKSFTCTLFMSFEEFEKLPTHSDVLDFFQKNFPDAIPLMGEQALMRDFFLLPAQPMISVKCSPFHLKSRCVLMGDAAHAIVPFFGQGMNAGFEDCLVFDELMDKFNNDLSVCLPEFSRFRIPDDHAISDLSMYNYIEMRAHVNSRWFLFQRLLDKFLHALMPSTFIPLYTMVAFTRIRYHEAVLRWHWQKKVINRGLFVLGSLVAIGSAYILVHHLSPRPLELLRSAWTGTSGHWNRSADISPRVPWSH
T1 sequence (O88867 whole entry): as the sequence (O88867 whole entry, looked up) above
Kynurenine/alpha-aminoadipate aminotransferase, mitochondrial (Rattus norvegicus), sequence (Q64602 30-425 limits assumed): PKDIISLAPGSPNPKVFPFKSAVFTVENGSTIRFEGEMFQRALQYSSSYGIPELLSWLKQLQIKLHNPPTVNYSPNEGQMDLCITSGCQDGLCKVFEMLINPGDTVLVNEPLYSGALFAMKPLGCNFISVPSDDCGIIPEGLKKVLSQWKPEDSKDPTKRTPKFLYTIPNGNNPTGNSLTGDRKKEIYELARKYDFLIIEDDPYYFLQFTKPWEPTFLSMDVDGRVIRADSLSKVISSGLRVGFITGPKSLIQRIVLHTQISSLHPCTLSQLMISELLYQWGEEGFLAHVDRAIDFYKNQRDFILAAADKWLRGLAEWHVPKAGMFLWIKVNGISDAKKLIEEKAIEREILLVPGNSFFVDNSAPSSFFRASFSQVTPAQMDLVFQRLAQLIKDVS

With `O=C(O)C(=O)/C=C(\O)c1ccc(Cl)c(Cl)c1` the IC50 [1] was 950 nM and the IC50 [2] was 6400 nM.
`CC(O)(CC(=O)c1ccc(Cl)c(Cl)c1)C(=O)O` (centres undefined) showed an inhibition [3] of 43%.
Work on `NC(CC(=O)c1ccc(Cl)c(Cl)c1)C(=O)O` (centres undefined) yielded an inhibition at 100 µM (FMO [4]) of 8.5%, an inhibition [5] of 10% and an inhibition [6] of 14%. It also gave an IC50 [7] of 330 nM and an inhibition (Pseudomonas fluorescens [8]) of 2%.
`O=C(CC(Cl)C(=O)O)c1ccc(Cl)c(Cl)c1` (centres undefined) was tested, and the IC50 [1] was 2200 nM and the IC50 [2] was 14800 nM.
`O=C(CC(O)C(=O)O)c1cccc(Cl)c1` (centres undefined) showed an IC50 [1] of 480 nM and an IC50 [2] of 1100 nM.
`O=C(CC1(C(=O)O)CC1)c1ccc(Cl)c(Cl)c1` was tested, and the inhibition [3] was 20%.
In the case of `CC(N)(CC(=O)c1ccc(Cl)c(Cl)c1)C(=O)O` (centres undefined), the inhibition [3] is reported as 35%.
`O=C(CC(Cc1ccccc1)C(=O)O)c1ccc(Cl)c(Cl)c1` (centres undefined) was tested, and the inhibition at 100 µM (FMO [9]) was 16%, the inhibition [10] was 0% and the inhibition [11] was 8%. It also gave an inhibition (Pseudomonas fluorescens [12]) of 8%.
In the case of `O=C(CC(C(=O)O)c1ccccc1)c1ccc(Cl)c(Cl)c1` (centres undefined), the IC50 [2] is reported as 19500 nM.
Work on `O=C(O)C(=O)/C=C(\O)c1ccc(F)c(F)c1` yielded an IC50 [1] of 440 nM and an IC50 [2] of 1200 nM.
Work on `C/C(=C\C(=O)c1ccc(Cl)c(Cl)c1)C(=O)O` yielded an IC50 [1] of 2200 nM and an IC50 [2] of 11300 nM.
Compound `NCCC(=O)c1ccc(Cl)c(Cl)c1` has an inhibition [3] of 2%.
For `O=C(CC(O)C(=O)O)c1ccc(Cl)c(Cl)c1` (centres undefined), the inhibition [10] was 0%, the inhibition [13] was 23% and the inhibition (Pseudomonas fluorescens [12]) was 29%.
For `CC(C)(CC(=O)c1ccc(Cl)c(Cl)c1)C(=O)O`, the inhibition [3] was 21%.
`COc1ccc(C(=O)CC(O)C(=O)O)cc1` (centres undefined) showed an inhibition [3] of 7%.

Reference: ChEMBL document CHEMBL1130635, “4-Phenyl-4-oxo-butanoic acid derivatives inhibitors of kynurenine 3-hydroxylase” (Bioorg Med Chem Lett, 1998)
